Data set [1] deals with complementary oligonucleotide. In words: Thermal denaturation of hybrids of ODNs and MGB-ODN conjugates with their complements (Table 6). It counts as binding. The following applies: 2 μM ODN, 1:1 with complement; 140 mM KCl, 10 mM MgCl2, 20 mM HEPES-HCl (pH 7.2); 0.5° C./min. How it is done: Hybrids formed between MGB-oligonucleotide conjugates or unmodified oligonucleotides and their complements were melted at a rate of 0.5° C./min in 140 mM KCl, 10 mM MgCl2 and 20 mM HEPES-HCl (pH 7.2) on a Lambda 2S (Perkin Elmer) spectrophotometer with a PTP-6 automatic multicell temperature programmer. Each oligonucleotide (2 μM) was mixed with sufficient complementary oligonucleotide to give a 1:1 ratio. Prior to melting, samples were denatured at 100° C. and then cooled to the starting temperature over a 10 min period. The melting temperatures (Tm) of the hybrids were determined from the derivative maxima and collected in Table 6. In the “sequence” column of Table 6, MGB refers to the presence of CDPI3 conjugated through a hexylamine linker esterified to the 5′-phosphate group of the oligonucleotide (see FIG. 2).

Data set [2] concerns E. coli supF gene contained in the plasmid pSP189. In words: Hydrolyzable probe assay with ppG-substituted 15-mer probe (Example 3). It counts as biochemical. The following applies: annealing/elongation at 75° C. (FIG. 6). The source says: Further increases in discriminatory ability of a MGB-oligonucleotide conjugate are obtained when the conjugate also contains a pyrazolo[3,4-d]pyrimidine nucleotide analogue. In this system, the target sequence is located in the E. coli supF gene contained in the plasmid pSP189 (FIG. 5, SEQ ID No.: 40). See Parris et al. (1992) Gene 117: 1-5. Binding sites for the primers used for amplification are indicated as Primer 1 and Primer 2, with Primer 1 having a sequence and polarity that is identical to that shown in FIG. 5, and Primer 2 having a sequence and polarity that is the reverse complement to that shown in FIG. 5. A 15-mer probe, labeled with fluorescein at the 5′-end, and with TAMRA and CDPI3 at the 3′-end, was designed to be complementary to a region within the approximately 375 nucleotides between the primers, as indicated in FIG. 5. This probe was tested using a series of templates, each containing a different single-nucleotide mismatch with the probe sequence, as shown in FIG. 5 and described infra.
The 15-nucleotide region of the template that is complementary to the probe used in this study was modified to generate a series of point mutations, as shown in FIG. 5. Each of the mutant templates was used in a separate assay with the 15-mer probe. The mutant sequences within this region of the template were as follows, with the mismatched nucleotide indicated by bold underlining: […]

In data set [3] the test system is long single stranded DNA template. The data set is described as follows: Primer extension experiment (blockage of T7 DNA polymerase by ODN). It is filed as biochemical. The settings on record: template 5×10^−10 M, primer 4×10^−8 M, blocking ODN 10^−9 M; 15 min at 45° C.; denaturing gel. The protocol: In this experiment, primer extension occurs with the enzyme T7 DNA polymerase that works from the 5′ end of a template strand. A 16-mer ODN-MGB which was complementary in the Watson Crick sense to a target sequence on the template strand was incubated with a long single stranded DNA template and the T7 DNA polymerase enzyme. […] The minor groove binder was the pyrroloindole tripeptide shown in this application in Table 5. When there was a single mismatch in the sequence specificity of the 16-mer to the target, primer extension was not blocked. Primer extension Was also not blocked when the minor groove binder moiety was attached to the 3′ end of the 16-mer. Primer extension was also not blocked when the sequence specific 16-mer and the free minor groove binder molecule (Compound 3d, not covalently attached to the ODN) was incubated with the template and the enzyme. […] (See Nucleic Acid Research (1993) 21: 5332-5336).
Primer extension reactions were performed as previously described by Lee, et al., (1994) Biochemistry 33: 6024-6030. The final concentrations of template, primer and blocking ODMs were 5×10^−10 M, 4×10^−8 M and 10^−9 M, respectively. Primer extension was carried out for 15 min at 45° C. and the products were analyzed by denaturing gel electrophoresis as described in the reference. […]

The test system of the next data set is exact complement. The data set is described as follows: Tm of 8-mer oligonucleotides with varying A + T content, with and without MGB (Table 11). The following applies: MGB-conjugated 8-mer hybridized with its exact complement. It counts as binding. How it is done:
Short oligonucleotides of differing A+T content, conjugated to a MGB, were used to investigate the effect of base composition on Tm for MGB-short oligonucleotide conjugates (Table 11). Tms were determined on a Perkin Elmer) λ2S UV/VIS spectrophotometer, equipped with a PTP-6 temperature controller, using the PECSS software package.

In data set [4] the test system is HIA DQβ1 0302 allele in BSM cells. In words: Sequence-specific alkylation of a gene in cultured human cells (cell culture crosslinking, LM-PCR). It counts as cell-based.

On to “13 (DNA TATTTTAGATAACCTT; DNA, backbone not given here) [compound 13]”, for which the Tm – broadly, the temperature at the midpoint of the melting transition – in data set [1] was 34 °C.
Still for that read-out and setting: as for “5 (DNA ATAACG; DNA, backbone not given here) [compound 5]”, the figure is 16 °C.
In the case of “5'-GGGTTCCCGAGCGGC (chemistry not fully specified) [MGB-conjugated 15-mer, 5′-fluorescein, 3′-TAMRA and CDPI3 probe, all guanine residues replaced by ppG]”, in data set [2], the “generation of signal with single-base mismatch” value is recorded as “completely suppressed” and the “level of signal with perfect match” value was “no effect on the level of signal”.
For “[3-carbamoyl-1,2-dihydro-3H-pyrrolo[3,2-e]indole-7-carbox]-1-amido-3-propanol Trmer [Compound 3d]”, the “blockage of primer extension by T7 DNA polymerase” value in data set [3] is on record as “not blocked”.
Consider “3 (DNA ATAAAACAGA; DNA, backbone not given here) [compound 3]”, for which the Tm in data set [1] is 24 °C.
On the same count and under the same terms, to “9 (DNA CGGGCAAAGGATTTAA; DNA, backbone not given here) [compound 9]” belongs 47 °C; to “8 (DNA CGGGCAAA; DNA, backbone not given here) [compound 8]”, 25 °C.
On the same count and under the same terms, to “12 (DNA CGGCTCTAATCTATTA; DNA, backbone not given here) [compound 12]” belongs 43 °C; to “1 (DNA ATAAAACAGAGGTGAG; DNA, backbone not given here) [compound 1]”, 45 °C.
On to “5′-MGB-CAATAATA: 8-mer MGB-oligonucleotide conjugate”, for which the Tm + MGB in the data set on exact complement was found to be 45 °C.
With “5′-GGTTATTTTTGAAGATACGAATTTCUCCAGAGACACAGCAGGATTTGTCA-CDPI3 [CDPI3-containing 50-mer]”, the “alkylation of the targeted site” value in data set [4] (1-50 μM, […], LM-PCR, sequencing gel) is “had bound to and alkylated the targeted site”. Also, the “efficiency of sequence specific alkylation of the 0302 allele versus the same ODN without the MGB” value in data set [4] ([…] at 37° C.) was found to be 10 fold.
For “11 (DNA CGGCTCTA; DNA, backbone not given here) [compound 11]”, the Tm in data set [1] amounted to 23 °C.
Same read-out and setting: to “4 (DNA TAATAACGTTCGGGCA; DNA, backbone not given here) [compound 4]” belongs 50 °C; to “10 (DNA GGCAAA; DNA, backbone not given here) [compound 10]”, below 17 °C.
On the same count and under the same terms, as for “2 (DNA ATAAAACAGAGG; DNA, backbone not given here) [compound 2]”, the figure is 39 °C.

Source of the values: patent US8465921B2, “Hybridization and mismatch discrimination using oligonucleotides conjugated to minor groove binders” (Elitech Holding B.V., priority 1995, dated 2013).
